Results taken from patent publication US20230139883A1, “Peptides for Inducing Differentiation” (Shimadzu Corporation, priority 2020, published 2023).

Key:
FGFR2 = experiment: Yeast display screening (MACS/FACS) against FGFR2 with Sanger sequencing of single colonies; type: binding; conditions: frequency of the clone among randomly selected single colonies after FGFR2 screening
Method: Cells were then charged to an LS column attached to a magnetic stand. In order to remove yeast cells not bound to FGFR2, 7 mL of PBSM was flowed through the LS column twice. The LS column was then removed from the magnetic stand and FGFR2-binding yeast clones were collected by flowing SDCAA medium and cultured. The above operations were deemed as one round, and a total of three rounds were performed (Table 10). Next, yeast clones with high binding activity were screened from the yeast collected by MACS, using FACS (Fluorescence-activated cell sorting). FGFR2-Fc and mouse anti-FLAG antibodies were bound to the yeast library, followed by binding of anti-mouse IgG-Alexa488 and anti-human Fc antibody-Alexa647. […] The binding of the peptide to FGFR2 can also be detected by the fluorescence intensity of Alexa647. With that, yeast clones with high fluorescence intensities of Alexa488 and Alexa647 were collected by FACS cell sorter (BD FACS AriaIII).
The phage library eluted after panning of Example 7 (Table 9: Input phage (Round 4)) was subjected to Human IgG Fc-immobilized plate, and negative selection was performed by collecting unbound phages. The phage library was then acted to FGFR3 prepared to concentrations of 100 nM, 10 nM, and 1 nM. Bound phages were then collected. The genomic DNA of the collected phages was extracted, samples were prepared according to Illumina's protocol for Miseq, and a comprehensive analysis of the phage genomic DNA was performed. Among the sequences obtained, 20 sequences high incidence rates were selected (Table 11). The yeast cells acquired in the screening of Example 8 were seeded onto SDCAA agar plates and cultured. Fourteen single colonies formed on the agar plates were randomly selected, and for each clone, the peptide DNA sequence incorporated into the yeast expression plasmid was analyzed using the Sanger method (Table 12).

FGFR3 = experiment: Phage display selection against FGFR3 with Miseq analysis of the bound phages; type: binding; conditions: for 1 nM Num. of reads: phage library after panning Round 4, bound to 1 nM FGFR3; for 10 nM Num. of reads: phage library after panning Round 4, bound to 10 nM FGFR3; for 100 nM Num. of reads: phage library after panning Round 4, bound to 100 nM FGFR3; for 1 nM Ranking / 10 nM Ranking / 100 nM Ranking: rank by number of reads; for 1 nM Ranking: 1 nM FGFR3; for 10 nM Ranking: 10 nM FGFR3; for 100 nM Ranking: 100 nM FGFR3
Method: The collected phage library was mixed with 100 nM of FGFR3 solution and allowed to react overnight at 4° C. (Table 9: Panning Round 1). After the reaction, the binding phages were captured by magnetic beads modified with protein A, and washed three times with PBS-T, followed by eluting the bound phages with Gly-HCl (pH 2.0). After neutralizing with 2M Tris, the pages were infected to E. coli (TG1 strain). After 4 hours of incubation, helper phages were added, and the E. coli (TG1 strain) were allowed to produce phages overnight. Next, phage solution was prepared from the culture supernatant. The prepared phage solution was mixed with FGFR3 solution and allowed to react overnight at 4° C. (Table 9: Panning Round 2). After the reaction, the bound phages were eluted. Phage solution prepared in the same way was mixed with FGFR3 solution and allowed to react at 4° C. for 1 hour (Table 9: Panning Round 3). After the reaction, the bound phages were eluted. This operation was further repeated, and after Panning Round 4, the bound phages were eluted. Note that as the rounds proceeded, the number of washes with PBS-T was increased. (Table 9). The titer of the Output phage in each round was also determined. The titer of phage was determined from the number of colonies obtained by incubating the E. coli TG1 strain contacted with the phage at 37° C. overnight. The phage library eluted after panning of Example 7 (Table 9: Input phage (Round 4)) was subjected to Human IgG Fc-immobilized plate, and negative selection was performed by collecting unbound phages. The phage library was then acted to FGFR3 prepared to concentrations of 100 nM, 10 nM, and 1 nM. Bound phages were then collected. The genomic DNA of the collected phages was extracted, samples were prepared according to Illumina's protocol for Miseq, and a comprehensive analysis of the phage genomic DNA was performed. Among the sequences obtained, 20 sequences high incidence rates were selected (Table 11). The yeast cells acquired in the screening of Example 8 were seeded onto SDCAA agar plates and cultured. Fourteen single colonies formed on the agar plates were randomly selected, and for each clone, the peptide DNA sequence incorporated into the yeast expression plasmid was analyzed using the Sanger method (Table 12).

## CAAELAALEAELAALEGPPRPHLPPLGKLFLLKFKLYLLKGAC [FGFR_Y09]
FGFR2
  Frequency: 1

## CAQELVALHMELRALGGGGGGGG----KLQALYLKLFALDHAC [FGFR_Y04]
FGFR2
  Frequency: 1

## CAAELAALEAELAALEGLHTLTLMQTGKLLVLKMKLRELKWAC [F3-100n192]
FGFR3
  1 nM Num. of reads: 1100
  10 nM Num. of reads: 707
  100 nM Num. of reads: 857
  1 nM Ranking: 15
  10 nM Ranking: 23
  100 nM Ranking: 28

## CPRELEALRRELGALMGGGGGGG----KLNALMLKLYALHNAC [FGFR_Y14]
FGFR2
  Frequency: 1

## CAAELAALEAELAALEGVRPETMSQVGKLLVLKHRLGQLKRAC [F3-100n9]
FGFR3
  1 nM Num. of reads: 3326
  10 nM Num. of reads: 2152
  100 nM Num. of reads: 2566
  1 nM Ranking: 1
  10 nM Ranking: 3
  100 nM Ranking: 4

## CAAELAALEAELAALEGGAPVTIMGVGKLMVLKEKLRNLKDAC [F3-100n16]
FGFR3
  1 nM Num. of reads: 1095
  10 nM Num. of reads: 647
  100 nM Num. of reads: 775
  1 nM Ranking: 16
  10 nM Ranking: 26
  100 nM Ranking: 33

## CAAELAALEAELAALEGETNMTVLMTGKLLVLKHKLEHLKWAC [F3-100n386]
FGFR3
  1 nM Num. of reads: 1216
  10 nM Num. of reads: 781
  100 nM Num. of reads: 1028
  1 nM Ranking: 13
  10 nM Ranking: 18
  100 nM Ranking: 19

## CAAELAALEAELAALEGKEHPTLRTSGKLLHLKLKLHELKRAC [F3-100n131]
FGFR3
  1 nM Num. of reads: 2801
  10 nM Num. of reads: 2079
  100 nM Num. of reads: 2648
  1 nM Ranking: 3
  10 nM Ranking: 4
  100 nM Ranking: 3

## CAAELAALEAELAALEGENVYTLGGLGKLMLLKYKLRELKGAC [F3-100n458]
FGFR3
  1 nM Num. of reads: 1304
  10 nM Num. of reads: 789
  100 nM Num. of reads: 1023
  1 nM Ranking: 10
  10 nM Ranking: 17
  100 nM Ranking: 20

## CAAELAALEAELAALEGVKELTLGTVGKLMSLKYKLWSLKQAC [F3-100n410]
FGFR3
  1 nM Num. of reads: 2547
  10 nM Num. of reads: 1717
  100 nM Num. of reads: 2279
  1 nM Ranking: 4
  10 nM Ranking: 5
  100 nM Ranking: 5

## CAAELAALEAELAALEGGAFLTVGRAGKLMMLKQKLVRLKCAC [F3-100n117]
FGFR3
  1 nM Num. of reads: 1355
  10 nM Num. of reads: 948
  100 nM Num. of reads: 1188
  1 nM Ranking: 9
  10 nM Ranking: 9
  100 nM Ranking: 12

## CAAELAALEAELAALEGSTARTLMQVGKLEMLKYKLLELKCAC [F3-100n3]
FGFR3
  1 nM Num. of reads: 1084
  10 nM Num. of reads: 613
  100 nM Num. of reads: 850
  1 nM Ranking: 17
  10 nM Ranking: 29
  100 nM Ranking: 29

## CAAELAALEAELAALEGEGMSTLNRQGKLSVLKSKLLWLKHAC [F3-100n228]
FGFR3
  1 nM Num. of reads: 2006
  10 nM Num. of reads: 1447
  100 nM Num. of reads: 1753
  1 nM Ranking: 5
  10 nM Ranking: 6
  100 nM Ranking: 7

## CAAELAALEAELAALEGEVNMTRARAGKLLVLKVKLHGLKQAC [F3-100n504]
FGFR3
  1 nM Num. of reads: 1062
  10 nM Num. of reads: 741
  100 nM Num. of reads: 1006
  1 nM Ranking: 18
  10 nM Ranking: 21
  100 nM Ranking: 21

## CAAELAALEAELAALEGRTFTIGEVKGKLQGLIMKLHHLKDAC [F3-100n116]
FGFR3
  1 nM Num. of reads: 1895
  10 nM Num. of reads: 2291
  100 nM Num. of reads: 3236
  1 nM Ranking: 6
  10 nM Ranking: 2
  100 nM Ranking: 1

## CAAELAALEAELAALEVGRVKTLGRYGKLMVLKHQLRNLKCAC [F3-100n161]
FGFR3
  1 nM Num. of reads: 1045
  10 nM Num. of reads: 903
  100 nM Num. of reads: 1261
  1 nM Ranking: 19
  10 nM Ranking: 10
  100 nM Ranking: 9

## CAAELAALEAELAALEGLDYHTVLSTGKLMVLKRKLNILKLAC [F3-100n250]
FGFR3
  1 nM Num. of reads: 966
  10 nM Num. of reads: 856
  100 nM Num. of reads: 1096
  1 nM Ranking: 20
  10 nM Ranking: 14
  100 nM Ranking: 16

## CAAELAALEAELAALEGASTPTLESRGKLGSLIFKLRQLKVAC [F3-100n50]
FGFR3
  1 nM Num. of reads: 1149
  10 nM Num. of reads: 820
  100 nM Num. of reads: 1121
  1 nM Ranking: 14
  10 nM Ranking: 15
  100 nM Ranking: 14

## CAAELAALEAELAALEGRPVRTVLTNGKLMVLKSKLQELKHAC [F3-100n182]
FGFR3
  1 nM Num. of reads: 1723
  10 nM Num. of reads: 1143
  100 nM Num. of reads: 1423
  1 nM Ranking: 7
  10 nM Ranking: 8
  100 nM Ranking: 8

## CAAELAALEAELAALEGGRDRTLELSGKLLVLKSKLHWLKHAC [F3-100n251]
FGFR3
  1 nM Num. of reads: 3203
  10 nM Num. of reads: 2387
  100 nM Num. of reads: 3153
  1 nM Ranking: 2
  10 nM Ranking: 1
  100 nM Ranking: 2

## CAAELAALEAELAALEGQKHFTLGGLGKLIVLKKQLRILKCAC [F3-100n174]
FGFR3
  1 nM Num. of reads: 1668
  10 nM Num. of reads: 1223
  100 nM Num. of reads: 1811
  1 nM Ranking: 8
  10 nM Ranking: 7
  100 nM Ranking: 6

## CAAELAALEAELAALEGGRTPVVTTMGKLMGLKLKLQQLKRAC [F3-100n322]
FGFR3
  1 nM Num. of reads: 1234
  10 nM Num. of reads: 813
  100 nM Num. of reads: 1061
  1 nM Ranking: 12
  10 nM Ranking: 16
  100 nM Ranking: 18

## CAAELAALEAELAALEGKDFRTIELVGKLVLLKYKLNNLKEAC [F3-100n548]
FGFR3
  1 nM Num. of reads: 1248
  10 nM Num. of reads: 873
  100 nM Num. of reads: 1088
  1 nM Ranking: 11
  10 nM Ranking: 13
  100 nM Ranking: 17
